Several values for one entry are separate records, joined by “and”; a condition that tells them apart may be missing. Equal values may be shown once. Inconclusive results and toxic doses are left out.

Among the data in PubChem BioAssay AID248 (DTP/NCI, 2004) are T/C values, retold here.

This experiment relates to L1210 leukemia ip in BDF1 mice, survival T/C. Kind of experiment: NCI In Vivo Anticancer Drug Screen. Data for tumor model L1210 Leukemia (intraperitoneal) in B6D2F1 (BDF1) mice. Conditions: endpoint: mean survival time, higher = longer survival. In outline:
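Antitumor effect is assessed in tumor-bearing animals. Survival in the compound arm is compared with a vehicle-dosed control arm and expressed as their quotient.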

Where [1] appears, read: dose: 100.0 mg/kg/injection, schedule: Q01DX001 (ip), vehicle: saline.
Setting [2] is: dose: 100.0 mg/kg/injection, schedule: Q04DX003 (ip), vehicle: saline.
The mark [3] stands for this setting: dose: 200.0 mg/kg/injection, schedule: Q01DX009 (ip), vehicle: saline.
The mark [4] stands for this setting: dose: 400.0 mg/kg/injection, schedule: Q01DX001 (ip), vehicle: saline.
[5] abbreviates: dose: 400.0 mg/kg/injection, schedule: Q04DX003 (ip), vehicle: saline.
Where [6] appears, read: dose: 200.0 mg/kg/injection, schedule: Q01DX001 (ip), vehicle: saline.

In the case of `COC(OC(CO)C(O)S(=O)(=O)O)C(O)S(=O)(=O)O` (stereo unspecified), the T/C is 100 % of control (dose: 12.5 mg/kg/injection, schedule: Q03HX008 (ip), vehicle: saline); 97 % of control (dose: 12.5 mg/kg/injection, schedule: Q03HX016 (ip), vehicle: saline); 102 % of control (dose: 12.5 mg/kg/injection, schedule: Q03HX024 (ip), vehicle: saline); 97 % of control (dose: 25.0 mg/kg/injection, schedule: Q03HX008 (ip), vehicle: saline); 102 % of control (dose: 25.0 mg/kg/injection, schedule: Q03HX016 (ip), vehicle: saline); 107 % of control (dose: 25.0 mg/kg/injection, schedule: Q03HX024 (ip), vehicle: saline). For the same compound, the T/C (dose: 35.0 mg/kg/injection, schedule: Q01DX001 (ip), vehicle: saline) was 105 % of control and 114 % of control; the T/C (dose: 35.0 mg/kg/injection, schedule: Q01DX009 (ip), vehicle: saline) was 123 % of control; the T/C (dose: 50.0 mg/kg/injection, schedule: Q01DX009 (sc), vehicle: saline) was 107 % of control; the T/C (dose: 50.0 mg/kg/injection, schedule: Q03HX008 (ip), vehicle: saline) was 117 % of control; the T/C (dose: 50.0 mg/kg/injection, schedule: Q03HX016 (ip), vehicle: saline) was 113 % of control; the T/C (dose: 50.0 mg/kg/injection, schedule: Q03HX024 (ip), vehicle: saline) was 122 % of control. Besides, the T/C is 112 % of control and 121 % of control (dose: 70.0 mg/kg/injection, schedule: Q01DX001 (ip), vehicle: saline); 244 % of control under setting [1]; 107 % of control (dose: 100.0 mg/kg/injection, schedule: Q01DX009 (oral), vehicle: saline); 115 % of control (dose: 100.0 mg/kg/injection, schedule: Q01DX009 (sc), vehicle: saline); 152 % of control (dose: 100.0 mg/kg/injection, schedule: Q03HX008 (ip), vehicle: saline); 167 % of control (dose: 100.0 mg/kg/injection, schedule: Q03HX024 (ip), vehicle: saline). Besides, the T/C was 122 % of control under setting [2]; 120 % of control and 121 % of control (dose: 140.0 mg/kg/injection, schedule: Q01DX001 (ip), vehicle: saline); 151 % of control under setting [3]; 116 % of control (dose: 200.0 mg/kg/injection, schedule: Q01DX009 (oral), vehicle: saline); 113 % of control (dose: 200.0 mg/kg/injection, schedule: Q01DX009 (sc), vehicle: saline); 124 % of control (dose: 280.0 mg/kg/injection, schedule: Q01DX001 (ip), vehicle: saline). In addition, the T/C was 152 % of control (dose: 280.0 mg/kg/injection, schedule: Q01DX009 (ip), vehicle: saline); 194 % of control under setting [4]; 116 % of control (dose: 400.0 mg/kg/injection, schedule: Q01DX009 (oral), vehicle: saline); 151 % of control under setting [5]; 103 % of control (dose: 800.0 mg/kg/injection, schedule: Q01DX009 (oral), vehicle: saline).

Turning to `COC(=O)Cc1ccc2c(c1)OCO2`, the T/C was 97 % of control under setting [1], 101 % of control under setting [6] and 103 % of control under setting [4].

For the compound `COC(OC)C1=C(Cl)C(Cl)=C(Cl)/C1=N\Nc1ccccc1`, the T/C (dose: 100.0 mg/kg/injection, schedule: Q04DX003 (ip), vehicle: Klucel (hydroxypropylcellulose) (HPC)) was 109 % of control; the T/C (dose: 200.0 mg/kg/injection, schedule: Q04DX003 (ip), vehicle: Klucel (hydroxypropylcellulose) (HPC)) was 98 % of control; the T/C (dose: 400.0 mg/kg/injection, schedule: Q04DX003 (ip), vehicle: Klucel (hydroxypropylcellulose) (HPC)) was 100 % of control.

Consider `CC(C)C(=O)C(C)(C)C`, for which the T/C by setting is: under setting [1], 102 % of control; under setting [6], 98 % of control; under setting [4], 107 % of control.

Turning to `O=C(CCOCc1ccccc1)N1Cc2cc3ccccc3nc2C1`, the T/C (dose: 10.0 mg/kg/injection, schedule: Q04DX003 (ip), vehicle: alcohol) is 96 % of control; the T/C (dose: 20.0 mg/kg/injection, schedule: Q04DX003 (ip), vehicle: alcohol) was 97 % of control; the T/C (dose: 40.0 mg/kg/injection, schedule: Q04DX003 (ip), vehicle: alcohol) was 92 % of control; the T/C (dose: 80.0 mg/kg/injection, schedule: Q04DX003 (ip), vehicle: alcohol) was 103 % of control; the T/C (dose: 160.0 mg/kg/injection, schedule: Q04DX003 (ip), vehicle: alcohol) is 92 % of control.

Turning to `Cc1cc(=O)[nH]c(N2CCOCC2)n1`, the T/C under setting [1] is 106 % of control and the T/C under setting [6] is 101 % of control.

In the case of `CCN(CC)CCCC(C)Nc1ccc(NC(C)CCCN(CC)CC)c2c1C(=O)c1ccccc1C2=O` (stereo unspecified), the T/C by setting is: (dose: 25.0 mg/kg/injection, schedule: Q01DX009 (ip), vehicle: saline) 96 % of control; (dose: 25.0 mg/kg/injection, schedule: Q04DX002 (ip), vehicle: saline) 92 % of control; (dose: 50.0 mg/kg/injection, schedule: Q01DX009 (ip), vehicle: saline) 89 % of control; (dose: 50.0 mg/kg/injection, schedule: Q04DX002 (ip), vehicle: saline) 103 % of control; (dose: 100.0 mg/kg/injection, schedule: Q04DX002 (ip), vehicle: saline) 96 % of control and 98 % of control.

`CO/N=C/c1ccc([N+](=O)[O-])s1`: the T/C runs as follows: under setting [2], 106 % of control; (dose: 200.0 mg/kg/injection, schedule: Q04DX003 (ip), vehicle: saline) 95 % of control; under setting [5], 98 % of control.

For the compound `CCOC(=O)C1(CCC#N)CC(C#N)(c2ccccc2)CCC1=O` (stereo unspecified), the T/C was 98 % of control (dose: 100.0 mg/kg/injection, schedule: Q04DX003 (ip), vehicle: acetone); 90 % of control (dose: 200.0 mg/kg/injection, schedule: Q04DX003 (ip), vehicle: acetone); 93 % of control (dose: 400.0 mg/kg/injection, schedule: Q04DX003 (ip), vehicle: acetone).

As to `CSc1nncc(-c2cnnc(SC)n2)n1`, the T/C (dose: 100.0 mg/kg/injection, schedule: Q04DX002 (ip), vehicle: Klucel (hydroxypropylcellulose) (HPC)) was 108 % of control and the T/C (dose: 200.0 mg/kg/injection, schedule: Q04DX002 (ip), vehicle: Klucel (hydroxypropylcellulose) (HPC)) was 94 % of control.

As to `Cc1ccc(S(=O)(=O)C2CCCCC2Cl)cc1` (stereo unspecified), the T/C reads like this: (dose: 100.0 mg/kg/injection, schedule: Q01DX001 (ip), vehicle: carboxymethylcellulose (CMC)) 109 % of control; (dose: 200.0 mg/kg/injection, schedule: Q01DX001 (ip), vehicle: carboxymethylcellulose (CMC)) 102 % of control; (dose: 400.0 mg/kg/injection, schedule: Q01DX001 (ip), vehicle: carboxymethylcellulose (CMC)) 98 % of control.

Take `CCOC(=O)N/N=C\C(C)=N\NC(=O)OCC`: the T/C is, setting by setting: (dose: 15.0 mg/kg/injection, schedule: Q01DX Z (ip), vehicle: carboxymethylcellulose (CMC)) 105 % of control; (dose: 30.0 mg/kg/injection, schedule: Q01DX Z (ip), vehicle: carboxymethylcellulose (CMC)) 98 % of control; (dose: 60.0 mg/kg/injection, schedule: Q01DX Z (ip), vehicle: carboxymethylcellulose (CMC)) 97 % of control and 105 % of control; (dose: 120.0 mg/kg/injection, schedule: Q01DX Z (ip), vehicle: carboxymethylcellulose (CMC)) 94 % of control and 97 % of control; (dose: 240.0 mg/kg/injection, schedule: Q01DX Z (ip), vehicle: carboxymethylcellulose (CMC)) 96 % of control; (dose: 480.0 mg/kg/injection, schedule: Q01DX Z (ip), vehicle: carboxymethylcellulose (CMC)) 87 % of control.

In the case of `CCOC(=O)c1c[nH]c2c(Cl)ccc(-c3ccccc3)c2c1=O`, the T/C runs as follows: (dose: 100.0 mg/kg/injection, schedule: Q01DX001 (ip), vehicle: saline with Tween-80) 98 % of control; (dose: 200.0 mg/kg/injection, schedule: Q01DX001 (ip), vehicle: saline with Tween-80) 96 % of control; (dose: 400.0 mg/kg/injection, schedule: Q01DX001 (ip), vehicle: saline with Tween-80) 93 % of control.

As for `NC(Cc1cc(Cl)c(O)c(Cl)c1)C(=O)O` (stereo unspecified), the T/C reads like this: (dose: 100.0 mg/kg/injection, schedule: Q01DX009 (ip), vehicle: saline) 103 % of control; (dose: 150.0 mg/kg/injection, schedule: Q01DX009 (ip), vehicle: saline) 108 % of control; under setting [3], 103 % of control.

Take `O=c1[nH]c2ccsc2c(=O)n1OS(=O)(=O)c1ccccc1`: the T/C was 100 % of control (dose: 100.0 mg/kg/injection, schedule: Q01DX009 (ip), vehicle: Klucel (hydroxypropylcellulose) (HPC)); 100 % of control (dose: 200.0 mg/kg/injection, schedule: Q01DX009 (ip), vehicle: Klucel (hydroxypropylcellulose) (HPC)); 88 % of control (dose: 400.0 mg/kg/injection, schedule: Q01DX009 (ip), vehicle: Klucel (hydroxypropylcellulose) (HPC)).
